The text below walks through data of ChEMBL document CHEMBL1811905, “Ligand-based discovery of novel trypanosomicidal drug-like compounds: in silico identification and experimental support” (Eur J Med Chem, 2011).

Data set [1] concerns Trypanosoma cruzi. Kind of data set: Antitrypanosomal activity against epimastigote forms of Trypanosoma cruzi CL-B5 transfected with Escherichia coli LacZ gene at 100 ug/ml after 72 hrs by chlorophenol red-Beta-D-galactopyranoside-based assay. It counts as functional.
Data set [2] concerns Trypanosoma cruzi. Nature of the data set: Antitrypanosomal activity against epimastigote forms of Trypanosoma cruzi CL-B5 transfected with Escherichia coli beta-galactosidase gene LacZ at 10 ug/ml after 72 hrs by chlorophenol red-Beta-D-galactopyranoside-based assay. It counts as functional.
Data set [3] concerns Trypanosoma cruzi. Nature of the data set: Antitrypanosomal activity against epimastigote forms of Trypanosoma cruzi CL-B5 transfected with Escherichia coli beta-galactosidase gene LacZ at 1 ug/ml after 72 hrs by chlorophenol red-Beta-D-galactopyranoside-based assay. Type of data set: functional.
In data set [4] the test system is J774. Kind of data set: Cytotoxicity against mouse J774 cells assessed as reduction in cell viability at 100 ug/ml after 24 hrs by resazurin-based colorimetric assay. Conditions: j774, 24 h. A general note: Alamar Blue is a resazurin reagent that responds to reducing activity.
Data set [5] has as its system J774. Nature of the data set: Cytotoxicity against mouse J774 cells assessed as reduction in cell viability at 10 ug/ml after 24 hrs by resazurin-based colorimetric assay. Conditions: j774, 24 h.
Data set [6] deals with J774. Kind of data set: Cytotoxicity against mouse J774 cells assessed as reduction in cell viability at 1 ug/ml after 24 hrs by resazurin-based colorimetric assay. Conditions: j774, 24 h.
Data set [7] relates to Trypanosoma cruzi. Nature of the data set: Antitrypanosomal activity against amastigote forms of Trypanosoma cruzi CL-B5 expressing Escherichia coli LacZ gene infected in NCTC929 fibroblasts at 10 ug/ml after 7 days by chlorophenol red-Beta-D-galactopyranoside-based assay. Type of data set: functional.
For data set [8], the system named is Trypanosoma cruzi. Nature of the data set: Antitrypanosomal activity against amastigote forms of Trypanosoma cruzi CL-B5 expressing Escherichia coli LacZ gene infected in NCTC929 fibroblasts at 100 ug/ml after 7 days by chlorophenol red-Beta-D-galactopyranoside-based assay. It counts as functional.
Data set [9] relates to Trypanosoma cruzi. Kind of data set: Antitrypanosomal activity against amastigote forms of Trypanosoma cruzi CL-B5 expressing Escherichia coli LacZ gene infected in NCTC929 fibroblasts at 1 ug/ml after 7 days by chlorophenol red-Beta-D-galactopyranoside-based assay. It counts as functional.

Each structure is given as a SMILES string.

Regarding `CN1CC(=O)Nc2cc([N+](=O)[O-])ccc21`, the Activity turned out to be 34.5% with Trypanosoma cruzi [1], 30.1% in the data set with Trypanosoma cruzi [2] and 17.8% with Trypanosoma cruzi [3].

On to `O=C1C[N+]2(CCCCC2)c2ccc([N+](=O)[O-])cc2N1.[Cl-]`, for which the Activity turned out to be 26.2% in the data set with Trypanosoma cruzi [1], 34% in the data set with Trypanosoma cruzi [2] and 27.2% in the data set on Trypanosoma cruzi [3].

For `O=C1CN(CCCCCl)c2ccc([N+](=O)[O-])cc2N1`, the Activity is listed as 70.5% with Trypanosoma cruzi [1]; 40.8% in the data set on Trypanosoma cruzi [2]; 21% in the data set with Trypanosoma cruzi [3]; 29% in the data set on J774 [4]; 7.4% in the data set on J774 [5]; 0% in the data set on J774 [6].

Turning to `O=C1CN(CCCCCCl)c2ccc([N+](=O)[O-])cc2N1`, the Activity turned out to be 47.5% in the data set with Trypanosoma cruzi [1]; 42.9% in the data set on Trypanosoma cruzi [2]; 27.7% with Trypanosoma cruzi [3]; 64.5% in the data set on J774 [4]; 32.3% in the data set with J774 [5]; 0% with J774 [6].

For the molecule `O=C1CN(CCc2ccccc2CCl)c2ccc([N+](=O)[O-])cc2N1`, the Activity is on record as 100% in the data set with Trypanosoma cruzi [1]; 96.2% in the data set with Trypanosoma cruzi [2]; 43.8% with Trypanosoma cruzi [3]; 76.6% in the data set with J774 [4]; 75.8% with J774 [5]; 4.7% in the data set on J774 [6].

For the molecule `CCOCc1ccccc1CCN1CC(=O)Nc2cc([N+](=O)[O-])ccc21`, the Activity is 100% in the data set with Trypanosoma cruzi [1]; 74.4% in the data set on Trypanosoma cruzi [2]; 28.1% in the data set on Trypanosoma cruzi [3]; 95.9% in the data set with J774 [4]; 48.5% in the data set with J774 [5].

Regarding `CN1C(=O)CN(CCCCCl)c2ccc([N+](=O)[O-])cc21`, the Activity was determined as 99% in the data set with Trypanosoma cruzi [1]; 69.1% in the data set on Trypanosoma cruzi [2]; 19.9% in the data set with Trypanosoma cruzi [3]; 39.33% in the data set on Trypanosoma cruzi [7]; 96.8% with J774 [4]; 0% with J774 [5].

In the case of `CN1C(=O)CN(CCCCCCCl)c2ccc([N+](=O)[O-])cc21`, the Activity turned out to be 100% with Trypanosoma cruzi [1]; 51.2% in the data set on Trypanosoma cruzi [2]; 25.7% with Trypanosoma cruzi [3]; 80.7% with J774 [4]; 63.9% in the data set on J774 [5].

In the case of `CN1C(=O)CN(CCc2ccccc2CCl)c2ccc([N+](=O)[O-])cc21`, the Activity in the data set with Trypanosoma cruzi [8] is on record as 100%; with Trypanosoma cruzi [1] it was 100%; in the data set on Trypanosoma cruzi [2], 100%; in the data set on Trypanosoma cruzi [3], 65.5%; in the data set on Trypanosoma cruzi [9] it was 35.39%; in the data set with Trypanosoma cruzi [7] it was 56.21%. The Activity in the data set with J774 [4] came out at 14.5%; in the data set with J774 [5], 0%; with J774 [6] it was 0%.

Take `CC1CS(=O)(=O)CCN1/N=C/c1ccc([N+](=O)[O-])o1` (stereo not drawn) [NIFURTIMOX]: the Activity with Trypanosoma cruzi [8] came out at 100%; in the data set on Trypanosoma cruzi [1], 98.7%; with Trypanosoma cruzi [2], 90%; in the data set with Trypanosoma cruzi [3] it was 75.5%; in the data set on Trypanosoma cruzi [9], 88.14%; in the data set with Trypanosoma cruzi [7], 94.44%. Also, the Activity with J774 [4] is recorded as 25.9%; with J774 [5], 0.6%; in the data set with J774 [6] it was 0%.
